Assay results reported in patent publication US4994473A, “Pyridyl containing insecticides” (ICI Americas Inc., priority 1988, dated 1991).

What was measured:
Musca domestica = assay: Housefly contact test, mortality after 48 hours; format: in vivo, Housefly Musca domestica; conditions: μg of the test compound per 25 female flies
Description: (§1) The compounds in Table I above were tested for insecticidal activity using the following testing procedures. LC50 values, based on the results of these tests and calculated according to dosage-mortality curves, are expressed in Table II.
The test compound was diluted in acetone and aliquots pipetted onto the bottom of aluminum dishes. To ensure even spreading of the chemical on the bottom of the dishes, 1 ml of acetone containing 0.01% peanut oil was also added to each dish. After all solvents had evaporated, the dishes were placed in circular cardboard cages containing 25 female houseflies, 1-2 days old. The cages were covered on the bottom with cellophane and on the top with tulle netting, and each contained a sugar-water saturated cotton plug for maintenance of the flies. Mortality was recorded after 48 hours. Test levels ranged from 100 μg/25 female houseflies downward. The LC-50 value is expressed below in Table II under the heading "HF", in terms of μg of the test compound per 25 female flies.

Aphis fabae = assay: Black bean aphid spray test on nasturtium plants, mortality after 48 hours; format: in vivo, Black Bean Aphid Aphis fabae (Scop.); conditions: mixed ages, percent of test compound in sprayed solution
Description: as §1
Black Bean Aphid Aphis fabae (Scop.)
Nasturtium plants (Tropaeolum sp.) approximately 5 cm tall, were transplanted into sandy loam soil in small cups and infested with 25-50 black bean aphids of mixed ages. Twenty-four hours later they were sprayed to the point of runoff with 50--50 acetone-water solutions of the test compound. Treated plants were held in the greenhouse and mortality was recorded after 48 hours. Test concentrations ranged from 0.05% downward. The LC-50 value is expressed below in Table II under the heading "BA" in terms of percent of the test compound in the sprayed solution.

Tetranychus urticae = assay: Two-spotted mite acaricidal test on pinto bean plants; format: in vivo, two-spotted mite Tetranychus urticae (Koch); conditions: percent concentration in solution, 5-7 days; for LC50 2-SM A: adults; for LC50 2-SM E: eggs
From the text: Acaricidal Evaluation Test
The two-spotted mite (2SM) [Tetranychus urticae (Koch)]was employed in tests for miticides. The test procedure was as follows:
Pinto bean plants (Phaseolus sp.) approximately 10 cm tall, were transplanted into sandy loam soil in small cups and thoroughly infested with two-spotted mites of mixed ages and sexes. Twenty-four hours later the infested plants were inverted and dipped for 2-3 seconds in 50--50 acetone-water solutions of the test compound. Treated plants were held in the greenhouse, and 5-7 days later mortality was determined for both adult mites and the nymphs hatching from eggs which were on the plants at the time of treatment. Test concentrations ranged from 0.05% downward. The LC-50 value is expressed below in Table II under the headings "2SM-A" (i.e., adults) and "2SM-E" (i.e. eggs) in terms of percent concentration of the test compound in the solution.

Heliothis virescens = assay: Tobacco budworm egg dip test; format: in vivo, Tobacco Budworm Heliothis virescens (Fabricius); conditions: 2-day old eggs (TBW-E), percent of test compound in solution
Description: as §1
Tobacco Budworm Heliothis virescens (Fabricius)
Eggs: Paper towel patches of 2-day old eggs of the tobacco budworm were dipped in acetone solutions of the test compound and placed in petri dishes containing a portion of larval rearing medium. Treated eggs were maintained at 78° F. and mortality was recorded after all control eggs had hatched and the young larvae were feeding on the media. Test concentrations ranged from 0.1% downward. The LC-50 value is expressed below in Table II under the heading "TBW-E" in terms of percent of the test compound in the solution.

Trichoplusia ni = assay: Cabbage looper larvae leaf-dip test; format: in vivo, Cabbage Looper Trichoplusia ni (Hubner); conditions: second instar larvae, percent of test compound in solution, 3-5 days
Description: as §1
Cabbage Looper Trichoplusia ni (Hubner)
The test compound was diluted in a 50--50 acetone-water solution Cotyledons of hyzini squash (Calabacita abobrinha), approximately 1×1.5 inches, were immersed in the test solutions for 2-3 seconds and placed on a wire screen to dry. The dried leaves were p1aced in petri dishes containing a moistened piece of filter paper and infested with 5 secondinstar cabbage looper larvae. The dishes were placed in a high humidity chamber. Mortality of the larvae was recorded 3-5 days later. Test concentrations ranged from 0.1% downward. The LC-50 value is expressed below in Table II under the heading "CL" in terms of percent of the test compound in solution.

[1] = test system: Diabrotica undecimpunctata undecimpunctata; assay: Western spotted cucumber beetle larvae soil test; format: in vivo; conditions: Diabrotica eggs/larvae; ppm of the test compound in the soil
Description: as §1
Western Spotted Cucumber Beetle Larvae Diabrotica undecimpunctata undecimpunctata (Mannherheim)
Ten grams of moist potting soil was placed in a plastic cup. The test compound was dissolved in acetone. A 0.05 ml aliquot of the test sample, diluted to the desired concentration, was added to the soil. The cup was capped and the soil was mixed on a vortex mixer for approximately 15 seconds. An indentation was made on the surface of the soil and approximately 50 Diabrotica eggs were added. The eggs were covered with soil and maintained at room temperature (approximately 70° F. or 21° C.). Four days later a section of Romaine lettuce (Latuca sativa) leaf was placed in the treated cups. One week later the cups were examined for live larvae. Test concentrations ranged from 25 ppm downward. The LC-50 value is expressed below in Table II under the heading "Diabrotica" in terms of ppm of the test compound in the soil.

## Cc1ccc(N=C(OCc2cccc(Oc3ccccc3)c2)C(C)C)cn1 [Compound 10]
Musca domestica
  LC50 HF: 25 µg
Aphis fabae
  LC50 BA: 0.05%
Tetranychus urticae
  LC50 2-SM A: > 0.05%
  LC50 2-SM E: > 0.05%
Heliothis virescens
  LC50 TBW: > 0.1%
Trichoplusia ni
  LC50 CL: > 0.1%

## CC(C)C(=Nc1ccc(Br)nc1)OCc1cccc(Oc2ccccc2)c1 [Compound 11]
Musca domestica
  LC50 HF: 7 µg
Aphis fabae
  LC50 BA: 0.01%
Tetranychus urticae
  LC50 2-SM A: > 0.05%
  LC50 2-SM E: > 0.05%
Heliothis virescens
  LC50 TBW: > 0.1%
Trichoplusia ni
  LC50 CL: 0.01%

## CC(C)(Cl)C(=Nc1ccc(Br)nc1)OCc1cccc(Oc2ccccc2)c1 [Compound 12]
Musca domestica
  LC50 HF: 12 µg
Aphis fabae
  LC50 BA: 0.05%
Tetranychus urticae
  LC50 2-SM A: > 0.05%
  LC50 2-SM E: > 0.05%
Heliothis virescens
  LC50 TBW: > 0.1%
Trichoplusia ni
  LC50 CL: 0.02%

## CC(C)C(=Nc1cncc(Br)c1)OCc1cccc(Oc2ccccc2)c1 [Compound 13]
Musca domestica
  LC50 HF: 7 µg
Aphis fabae
  LC50 BA: > 0.05%
Heliothis virescens
  LC50 TBW: > 0.1%
Trichoplusia ni
  LC50 CL: 0.015%

## CC(C)C(=Nc1ccc2ncccc2c1)OCc1cccc(Oc2ccccc2)c1 [Compound 16]
Musca domestica
  LC50 HF: 59 µg
Tetranychus urticae
  LC50 2-SM A: > 0.05%
  LC50 2-SM E: > 0.05%
Heliothis virescens
  LC50 TBW: > 0.1%
Trichoplusia ni
  LC50 CL: 0.025%
[1]
  LC50 Diabrotica: > 25 ppm

## CC(C)C(=Nc1cnc2ccccc2c1)OCc1cccc(Oc2ccccc2)c1 [Compound 17]
Musca domestica
  LC50 HF: 36 µg
Tetranychus urticae
  LC50 2-SM A: > 0.05%
  LC50 2-SM E: > 0.05%
Heliothis virescens
  LC50 TBW: > 0.1%
Trichoplusia ni
  LC50 CL: 0.05%
[1]
  LC50 Diabrotica: > 25 ppm

## CC(C)C(=Nc1ccc2ncoc2c1)OCc1cccc(Oc2ccccc2)c1 [Compound 18]
Musca domestica
  LC50 HF: 8 µg
Tetranychus urticae
  LC50 2-SM A: > 0.05%
  LC50 2-SM E: > 0.05%
Heliothis virescens
  LC50 TBW: > 0.1%
Trichoplusia ni
  LC50 CL: 0.009%
[1]
  LC50 Diabrotica: > 25 ppm

## CC(C)C(=Nc1ccc2ocnc2c1)OCc1cccc(Oc2ccccc2)c1 [Compound 19]
Musca domestica
  LC50 HF: 10 µg
Tetranychus urticae
  LC50 2-SM A: > 0.05%
  LC50 2-SM E: > 0.05%
Heliothis virescens
  LC50 TBW: > 0.1%
Trichoplusia ni
  LC50 CL: 0.04%
[1]
  LC50 Diabrotica: > 25 ppm

## CC(C)C(=Nc1ccc2ncsc2c1)OCc1cccc(Oc2ccccc2)c1 [Compound 20]
Musca domestica
  LC50 HF: 6 µg
Trichoplusia ni
  LC50 CL: 0.009%

## CC(C)C(=Nc1ccc2nc(C(C)C)sc2c1)OCc1cccc(Oc2ccccc2)c1 [Compound 21]
Musca domestica
  LC50 HF: > 100 µg
Tetranychus urticae
  LC50 2-SM A: > 0.05%
  LC50 2-SM E: > 0.05%
Heliothis virescens
  LC50 TBW: > 0.1%
Trichoplusia ni
  LC50 CL: 0.05%
[1]
  LC50 Diabrotica: > 25 ppm

## CC(C)C(=Nc1ccc(Cl)nc1)OCc1cccc(Oc2ccc(F)cc2)c1 [Compound 22]
Musca domestica
  LC50 HF: 9 µg
Tetranychus urticae
  LC50 2-SM A: > 0.05%
  LC50 2-SM E: > 0.05%
Heliothis virescens
  LC50 TBW: 0.05%
Trichoplusia ni
  LC50 CL: 0.001%
[1]
  LC50 Diabrotica: > 25 ppm

## CC(C)C(=Nc1ccc(Cl)nc1)NCc1cccc(Oc2ccccc2)c1 [Compound 23]
Musca domestica
  LC50 HF: > 100 µg
Tetranychus urticae
  LC50 2-SM A: > 0.05%
  LC50 2-SM E: > 0.05%
Heliothis virescens
  LC50 TBW: > 0.1%
Trichoplusia ni
  LC50 CL: 0.1%
[1]
  LC50 Diabrotica: > 25 ppm

## Cc1nc2cc(N=C(OCc3cccc(Oc4ccccc4)c3)C(C)C)ccc2o1 [Compound 24]
Musca domestica
  LC50 HF: > 100 µg
Tetranychus urticae
  LC50 2-SM A: > 0.05%
  LC50 2-SM E: > 0.05%
Heliothis virescens
  LC50 TBW: > 0.1%
Trichoplusia ni
  LC50 CL: 0.0075%
[1]
  LC50 Diabrotica: > 25 ppm

## Cc1nc2ccc(N=C(OCc3cccc(Oc4ccccc4)c3)C(C)C)cc2o1 [Compound 25]
Musca domestica
  LC50 HF: 38 µg
Tetranychus urticae
  LC50 2-SM A: > 0.05%
  LC50 2-SM E: > 0.05%
Heliothis virescens
  LC50 TBW: > 0.1%
Trichoplusia ni
  LC50 CL: 0.0075%
[1]
  LC50 Diabrotica: > 25 ppm

## CC(C)C(=Nc1ccc(Cl)nc1)OCc1ccc(F)c(Oc2ccc(F)cc2)c1 [Compound 31]
Musca domestica
  LC50 HF: 7.5 µg
Tetranychus urticae
  LC50 2-SM A: > 0.05%
  LC50 2-SM E: > 0.05%
Heliothis virescens
  LC50 TBW: 0.45%
Trichoplusia ni
  LC50 CL: 0.0016%
[1]
  LC50 Diabrotica: > 25 ppm

## CC(C)C(=Nc1ccc(Cl)nc1)OCc1ccc(F)c(Oc2ccc(Cl)cc2)c1 [Compound 32]
Musca domestica
  LC50 HF: 22 µg
Tetranychus urticae
  LC50 2-SM A: > 0.05%
  LC50 2-SM E: 0.05%
Heliothis virescens
  LC50 TBW: 0.03%
Trichoplusia ni
  LC50 CL: 0.00075%
[1]
  LC50 Diabrotica: > 25 ppm

## CC(C)C(=Nc1cc(C(F)(F)F)ccn1)OCc1cccc(Oc2ccccc2)c1 [Compound 34]
Musca domestica
  LC50 HF: > 100 µg
Tetranychus urticae
  LC50 2-SM A: > 0.05%
  LC50 2-SM E: > 0.05%
Heliothis virescens
  LC50 TBW: > 0.1%
Trichoplusia ni
  LC50 CL: 0.018%
[1]
  LC50 Diabrotica: > 25 ppm

## CC(C)C(=Nc1cncc(C(F)(F)F)c1)OCc1cccc(Oc2ccc(F)cc2)c1 [Compound 35]
Musca domestica
  LC50 HF: 23 µg
Tetranychus urticae
  LC50 2-SM A: > 0.05%
  LC50 2-SM E: > 0.05%
Heliothis virescens
  LC50 TBW: 0.1%
Trichoplusia ni
  LC50 CL: 0.001%
[1]
  LC50 Diabrotica: > 25 ppm

## CC(C)C(=Nc1cc(C(F)(F)F)ccn1)OCc1cccc(Oc2ccc(F)cc2)c1 [Compound 36]
Musca domestica
  LC50 HF: > 100 µg
Tetranychus urticae
  LC50 2-SM A: > 0.05%
  LC50 2-SM E: > 0.05%
Heliothis virescens
  LC50 TBW: > 0.1%
Trichoplusia ni
  LC50 CL: 0.015%
[1]
  LC50 Diabrotica: > 25 ppm
